# From ChEMBL document CHEMBL4673257, “Azepino-indazoles as calcitonin gene-related peptide (CGRP) receptor antagonists” (Bioorg Med Chem Lett, 2021)
# Tests used:
# [1] = Oral bioavailability in rat at 10 mg/kg; format: ADME, organism-based; conditions: in vivo
# [2] = target: T1, Calcitonin gene-related peptide type 1 receptor (Homo sapiens, UniProt O60894+Q16602); assay: Antagonist activity at human CGRP receptor
# Callithrix jacchus [3] = assay: Antimigraine activity in human CGRPalpha-induced migraine marmoset model assessed as reduction in facial blood flow at 5 mg/kg, sc administered 30 mins after CGRPalpha stimulation measured after 15 mins by laser doppler method relative to control; format: functional; parameters: scale not given: the % may be the effect or the level left; conditions: time 45 min, 0.75 h
# [4] = Metabolic stability in human liver microsomes assessed as half life; format: ADME, Microsome
# [5] = Metabolic stability in monkey liver microsomes assessed as half life; format: ADME, Macaca mulatta, Microsome; conditions: rhesus monkey
# [6] = Metabolic stability in dog liver microsomes assessed as half life; format: ADME, Canis lupus familiaris, Microsome
# [7] = target: T1, Calcitonin gene-related peptide type 1 receptor; assay: Antagonist activity at human CGRP receptor in human SK-N-MC cells assessed as inhibition of CGRP-induced cAMP production; format: functional, cell-based
# Callithrix jacchus [8] = assay: Antimigraine activity in human CGRPalpha-induced migraine marmoset model assessed as reduction in facial blood flow at 5 mg/kg, sc administered 30 mins after CGRP stimulation and measured after 60 mins by laser doppler method relative to control; format: functional; parameters: scale not given: the % may be the effect or the level left; conditions: time 90 min, 1.5 h
# [9] = Metabolic stability in rat liver microsomes assessed as half life; format: ADME, Microsome
# [10] = Protein binding human plasma assessed as unbound fraction; format: ADME, cell-free
# Callithrix jacchus [11] = assay: Antimigraine activity in human CGRPalpha-induced migraine marmoset model assessed as reduction in facial blood flow at 5 mg/kg, sc administered 30 mins after CGRP stimulation and measured after 105 mins by laser doppler method relative to control; format: functional; parameters: scale not given: the % may be the effect or the level left; conditions: time 135 min, 2.25 h
# T1 sequence (Q16602 whole entry, one chain of several): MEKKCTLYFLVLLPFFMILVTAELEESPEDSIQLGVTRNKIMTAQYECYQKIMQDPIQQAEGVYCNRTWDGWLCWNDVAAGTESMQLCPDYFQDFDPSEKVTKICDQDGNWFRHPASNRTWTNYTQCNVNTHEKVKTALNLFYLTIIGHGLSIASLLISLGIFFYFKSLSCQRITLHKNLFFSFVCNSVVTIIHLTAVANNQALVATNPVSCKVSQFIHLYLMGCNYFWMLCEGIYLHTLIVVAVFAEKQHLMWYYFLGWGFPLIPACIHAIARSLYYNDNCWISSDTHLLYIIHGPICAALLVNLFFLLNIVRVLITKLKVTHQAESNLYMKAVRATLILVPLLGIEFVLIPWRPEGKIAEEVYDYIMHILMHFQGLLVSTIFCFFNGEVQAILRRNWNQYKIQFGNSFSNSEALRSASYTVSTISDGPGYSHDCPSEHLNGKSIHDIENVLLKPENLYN
SMILES,bioavailability [1],Ki [2],further results
CC(C)(C)CN1Cc2c(cc(Cl)c3[nH]ncc23)C[C@@H](CC(=O)N2CCC(c3cc4ccccc4[nH]c3=O)CC2)C1=O,4.5%,0.75 nM,
O=C(C[C@@H]1Cc2cc(Cl)c3[nH]ncc3c2CN(CC(F)(F)F)C1=O)N1CCC(N2Cc3ccccc3NC2=O)CC1,,0.23 nM,
O=C(C[C@@H]1Cc2cc(Cl)c3[nH]ncc3c2CN(CC(F)(F)F)C1=O)N1CCC(n2c(=O)[nH]c3ncccc32)CC1,5.5%,0.09 nM,
O=C(C[C@@H]1Cc2cc(Cl)c3[nH]ncc3c2CN(CC(F)(F)F)C1=O)N1CCC(N2CCc3ccccc3NC2=O)CC1,17%,0.1 nM,Activity (Callithrix jacchus [3]): 27%; half-life [4]: 3.6 min; half-life [5]: 2.4 min; half-life [6]: 3.1 min; IC50 [7]: 0.27 nM; Activity (Callithrix jacchus [8]): 41%; half-life [9]: 2.2 min; fraction unbound [10]: 0.028; Activity (Callithrix jacchus [11]): 47%
O=C(N[C@@H]1Cc2ccc3[nH]ncc3c2CN(CCc2ccncc2)C1=O)N1CCC(N2Cc3ccccc3NC2=O)CC1,,7.1 nM,
O=C(C[C@@H]1Cc2cc(Cl)c3[nH]ncc3c2CN(CC(F)(F)F)C1=O)N1CCC(c2cc3ccccc3[nH]c2=O)CC1,3.4%,0.54 nM,
CC(C)(C)CN1Cc2c(cc(Cl)c3[nH]ncc23)C[C@@H](CC(=O)N2CCC(N3Cc4cccc(F)c4NC3=O)CC2)C1=O,4.7%,0.31 nM,
CC(C)(C)CN1Cc2c(cc(Cl)c3[nH]ncc23)C[C@@H](CC(=O)N2CCC(c3cc4cccc(F)c4[nH]c3=O)CC2)C1=O,12%,6 nM,
CC(C)(C)CN1Cc2c(cc(Cl)c3[nH]ncc23)C[C@@H](CC(=O)N2CCC(N3Cc4ccccc4NC3=O)CC2)C1=O,1.8%,0.41 nM,
CN(C)CCN1Cc2c(ccc3[nH]ncc23)C[C@@H](NC(=O)N2CCC(N3Cc4ccccc4NC3=O)CC2)C1=O,,170 nM,
CC(C)(C)CN1Cc2c(ccc3[nH]ncc23)C[C@@H](NC(=O)N2CCC(N3Cc4ccccc4NC3=O)CC2)C1=O,,4.9 nM,
O=C(C[C@@H]1Cc2cc(Cl)c3[nH]ncc3c2CN(CC(F)(F)F)C1=O)N1CCC(N2CCc3cccc(F)c3NC2=O)CC1,,9.2 nM,
O=C(C[C@@H]1Cc2cc(Cl)c3[nH]ncc3c2CN(CC(F)(F)F)C1=O)N1CCC(n2c(=O)[nH]c3ccccc32)CC1,,3.3 nM,
CC(C)N1Cc2c(ccc3[nH]ncc23)C[C@@H](NC(=O)N2CCC(N3Cc4ccccc4NC3=O)CC2)C1=O,,59 nM,
O=C(N[C@@H]1Cc2cc(Cl)c3[nH]ncc3c2CN(Cc2ccccc2)C1=O)N1CCC(N2Cc3ccccc3NC2=O)CC1,,1 nM,
O=C(N[C@@H]1Cc2ccc3[nH]ncc3c2CN(CCN2CCOCC2)C1=O)N1CCC(N2Cc3ccccc3NC2=O)CC1,,50 nM,
O=C(N[C@@H]1Cc2ccc3[nH]ncc3c2CN(Cc2ccccc2)C1=O)N1CCC(N2Cc3ccccc3NC2=O)CC1,,12 nM,
O=C(N[C@@H]1Cc2ccc3[nH]ncc3c2CN(Cc2ccncc2)C1=O)N1CCC(N2Cc3ccccc3NC2=O)CC1,,22 nM,
O=C(C[C@@H]1Cc2cc(Cl)c3[nH]ncc3c2CN(CC(F)(F)F)C1=O)N1CCC(c2cc3cccc(F)c3[nH]c2=O)CC1,,6 nM,
CC(C)CN1Cc2c(ccc3[nH]ncc23)C[C@@H](NC(=O)N2CCC(N3Cc4ccccc4NC3=O)CC2)C1=O,,14 nM,
O=C(N[C@@H]1Cc2ccc3[nH]ncc3c2CN(C2CCNCC2)C1=O)N1CCC(N2Cc3ccccc3NC2=O)CC1,,290 nM,
CN1Cc2c(ccc3[nH]ncc23)C[C@@H](NC(=O)N2CCC(N3Cc4ccccc4NC3=O)CC2)C1=O,,370 nM,
CC(C)(C)CN1Cc2c(cc(Cl)c3[nH]ncc23)C[C@@H](NC(=O)N2CCC(N3Cc4ccccc4NC3=O)CC2)C1=O,,1.5 nM,
